Measured values published in patent publication US20250034202A1 (The General Hospital Corporation, priority 2021, published 2025).
“And” between values parts separate entries of the source, which are not always exact repeats. Equal entries are not always repeated. Where two headings read alike, the source gives them in different places.

Experiments:
BRD4 [1] = target: T1, BRD4 (Homo sapiens, UniProt O60885); test: Rescue of CS-JQ1-induced BRD4 degradation by co-treatment; format: cell-based; conditions: CS-JQ1 250 nM; BTZ, MLN7243, MLN4924 1 μM, JQ1 10 μM; MCF7 and MDA-MB-231 cells
MDA = test: Cell viability, breast cancer cells MDA; format: cell-based
MCF-7 = test: Cell viability, breast cancer cells MCF-7; format: cell-based
MDA-BR = test: Cell viability, breast cancer cells MDA-BR; format: cell-based
BT474 = test: Cell viability, breast cancer cells BT474; format: cell-based
SJGBM2 = test: Cell viability, pediatric glioma SJGBM2; format: cell-based
DIPG XIII [2] = test: Cell viability, pediatric glioma DIPG XIII; format: cell-based
DIPG VI = test: Cell viability, pediatric glioma DIPG VI; format: cell-based
DIPG IV = test: Cell viability, pediatric glioma DIPG IV; format: cell-based
MES83 [3] = test: Cell viability, adult glioma MES83; format: cell-based
GBM8 = test: Cell viability, adult glioma GBM8; format: cell-based
CT2A (mice) = test: Cell viability, adult glioma CT2A (mice); format: cell-based
MES236 = test: Cell viability, adult glioma MES236; format: cell-based
MGG29 = test: Cell viability, adult glioma MGG29; format: cell-based
PN84 = test: Cell viability, adult glioma PN84; format: cell-based
U87 = test: Cell viability, adult glioma U87; format: cell-based
MGG23 = test: Cell viability, adult glioma MGG23; format: cell-based
MGG6 = test: Cell viability, adult glioma MGG6; format: cell-based
BRD4 [4] = test: CDDO blockade of CS-JQ1-induced BRD4 degradation; format: cell-based; conditions: MDA and MES83 cells; CDDO 100 nM or 5 μm, celastrol-JQ1 100 nM; CHX 3 μg/ml 1 h, 8 hour treatment
BRD4 [5] = target: T1, BRD4; test: TR-FRET quantification of BRD4 levels after 5 h treatment, MCF7 cells; format: cell-based; conditions: BRD4 degradation
Method: (§1) Mammalian cell culture: MCF7 cells (ATCC) were propagated in RPMI-1640 medium supplemented with 10% FBS, 1% pen-strep, and 1% L-glutamine at 37° C. and 5% CO2. MDA-MB-231 cells (ATCC) were propagated in DMEM medium supplemented with 10% FBS, and 1% pen-strep at 37° C. and 5% CO2.
(§2) TR-FRET measurements: unless otherwise noted, experiments were performed in white, 384-well microtiter plates (Corning 3572) in 30 μL assay volume. […] The 490/10 and 520/10 emission channels were acquired with a 50% mirror and a dichroic 510 mirror, respectively, using independently optimized detector gain settings unless specified otherwise. The TR-FRET ratio was taken as the 520/490 nm intensity ratio on a per-well basis.
(§3) Next, MCF7 and MDA-MB-231 cells were treated for 5 h with varying concentrations of CS-JQ1, followed by BRD4 quantification. […] Western blot analysis on the same samples yielded results that were again in excellent agreement (FIG. 1F-G).

BRD4 [6] = target: T1, BRD4; test: TR-FRET quantification of BRD4 levels after 5 h treatment, MDA-MB-231 cells; format: cell-based; conditions: BRD4 degradation
Method: as §1, §2, §3

BRD4 [7] = test: TR-FRET ligand displacement, target engagement with BRD4; format: binding; conditions: recombinant BRD4(BD1), BRD4(BD2), endogenous BRD4 in MCF7 cell extracts
Keap1 Kelch domain = Keap1 Kelch domain (Homo sapiens, UniProt Q14145); test: TR-FRET assay with full-length Keap1, Kelch domain; format: binding
Chain of Keap1 Kelch domain (Q14145 whole entry, the tested form may be a part): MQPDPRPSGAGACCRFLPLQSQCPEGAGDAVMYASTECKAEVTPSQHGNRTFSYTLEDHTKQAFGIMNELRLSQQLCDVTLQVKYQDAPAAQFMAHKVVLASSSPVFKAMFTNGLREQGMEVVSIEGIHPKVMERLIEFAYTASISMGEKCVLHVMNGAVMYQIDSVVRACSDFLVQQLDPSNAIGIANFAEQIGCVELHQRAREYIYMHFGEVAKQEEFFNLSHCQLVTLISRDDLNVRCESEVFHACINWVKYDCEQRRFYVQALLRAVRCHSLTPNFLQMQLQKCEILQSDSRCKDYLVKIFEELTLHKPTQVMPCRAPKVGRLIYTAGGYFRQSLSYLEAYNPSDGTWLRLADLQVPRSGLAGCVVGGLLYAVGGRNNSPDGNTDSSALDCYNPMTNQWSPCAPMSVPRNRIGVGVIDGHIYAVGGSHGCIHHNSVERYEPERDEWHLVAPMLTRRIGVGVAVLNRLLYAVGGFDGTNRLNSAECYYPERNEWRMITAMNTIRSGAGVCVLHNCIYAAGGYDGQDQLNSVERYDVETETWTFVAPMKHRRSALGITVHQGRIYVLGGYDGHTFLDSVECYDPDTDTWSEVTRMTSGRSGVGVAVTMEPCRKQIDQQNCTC
Method: (§4) FIG. 5 contains a table showing apparent equilibrium dissociation constants for CS and CS-JQ1 toward Keap1-Kelch and Keap1-BTB domains.
(§5) Chemical synthesis: FITC-Ahx-[…]-CONH2 (FITC-KL9) peptide tracer was custom synthesized by Genscript (Piscataway, New Jersey). CDDO-FITC fluorescent tracer was prepared as previously described. Column purifications were performed on a Biotage Isolera 4 Purification System equipped with a 200-400 nm diode array detector. For normal phase flash purifications, Sorbtech Purity Flash Cartridges were used (CFC-52300-012-18 and CFC-52500-025-12). For reverse phase flash purifications, Biotage Sfar Bio C18 Duo 300 A, 20 μm cartridges were used (FSBD-0411-001). […] LC/MS data analysis was performed using Waters Masslynx V4.1 SCN 846 software. Proton and carbon nuclear magnetic resonance (1H and 13C NMR spectra) were recorded on a Bruker Avance III 400 spectrometer using Topspin 3.2 software and data were analyzed using MestreNova (version 12.0.1-20560, Mestrelab Research). Chemical shifts for protons are reported in parts per million (ppm) and are referenced to residual solvent peaks. Data is reported as follows: chemical shift, multiplicity (s=singlet, br s, =broad singlet, d=doublet, t=triplet, q=quartet, p=pentet, m=multiplet), proton coupling constants (J, Hz), and integration. […]

Keap1 BTB domain = Keap1 BTB domain (Homo sapiens, UniProt Q14145); test: TR-FRET ligand displacement assay with full-length Keap1, BTB domain (CDDO-based tracer); format: binding
Chain of Keap1 BTB domain (Q14145 whole entry, the tested form may be a part): as above
Method: as §4
as §5, with “Research).” for “Research). Chemical shifts for protons are reported in parts per million (ppm) and are referenced to residual solvent peaks. Data is reported as follows: chemical shift, multiplicity (s=singlet, br s, =broad singlet, d=doublet, t=triplet, q=quartet, p=pentet, m=multiplet), proton coupling constants (J, Hz), and integration.”
CS was discovered and validated as a promising new ligand for the redirection of E3 ligase activity. […] Since the binding affinity of CS and CS-JQ1 for BTB was determined in a ligand displacement assay using a CDDO-based tracer, it was reasonable to assume that CDDO-Me would efficiently displace CS-JQ1. […]

[8] = system: full-length Keap1 and BRD4(BD1) and BRD4(BD2); test: CS-JQ1-induced ternary complex formation; format: binding; conditions: wildtype full-length Keap1, isolated BRD4 (BD1) and BRD4 (BD2)
DIPG 50 = test: Cell viability, pediatric glioma DIPG 50; format: cell-based
PHC (mice) = test: Cell viability, pediatric glioma PHC (mice); format: cell-based; conditions: Mus musculus
PKC (mice) = test: Cell viability, pediatric glioma PKC (mice); format: cell-based; conditions: Mus musculus
XFM (mice) = test: Cell viability, pediatric glioma XFM (mice); format: cell-based; conditions: Mus musculus
M005 (mice) = test: Cell viability, adult glioma M005 (mice); format: cell-based; conditions: Mus musculus
[9] = cited from earlier work
DIPG XIII [10] = test: Cell viability, CS and JQ1 combination, DIPG XIII; format: cell-based
MES83 [11] = test: Cell viability, CS and JQ1 combination, MES83; format: cell-based

SMILES	Rescue of CS-JQ1-mediated BRD4 degradation by co-treatment (BRD4 [1])	IC50 (MDA) [nM]	IC50 (MDA-BR) [nM]	IC50 (SJGBM2) [nM]	IC50 (DIPG XIII [2])	IC50 (DIPG VI) [nM]	IC50 (DIPG IV) [nM]	IC50 (MES83 [3]) [nM]	IC50 (GBM8) [nM]	IC50 (MES236) [nM]	IC50 (MGG29) [nM]	IC50 (PN84) [nM]	IC50 (MGG23) [nM]	IC50 (MGG6) [nM]	IC50 (BT474; Homo sapiens, BT-474) [nM]	IC50 (DIPG 50) [nM]	IC50 (PHC (mice)) [nM]	IC50 (PKC (mice)) [nM]	IC50 (XFM (mice)) [nM]	IC50 (U87; Homo sapiens, U-87 MG) [nM]	other results
CC(C)C[C@H](NC(=O)[C@H](Cc1ccccc1)NC(=O)c1cnccn1)B(O)O [BTZ]	substantially rescued																				
Cc1sc2c(c1C)C(c1ccc(Cl)cc1)=NC(CC(=O)NCCCOCCOCCOCCCNC(=O)[C@]13CCC(C)(C)C[C@H]1[C@H]1C(=O)C=C4[C@@]5(C)C=C(C#N)C(=O)C(C)(C)[C@@H]5CC[C@@]4(C)[C@]1(C)CC3)c1nnc(C)n1-2 (stereo partly shown) [CDDO-JQ1]		748	> 10000	635	694 nM	277	894	1000	124	404	360	139	1850	357							IC50 (MCF-7): 6600 nM; IC50 (BT474): 1680 nM; IC50 (CT2A (mice)): 747 nM; IC50 (U87): 746 nM
CC1(C)CC[C@]2(C(=O)O)CC[C@]3(C)[C@H](C(=O)C=C4[C@@]5(C)C=C(C#N)C(=O)C(C)(C)[C@@H]5CC[C@]43C)[C@@H]2C1 [CDDO]		1220	> 10000	2370	1410 nM	1330	1360	1350	578	1280	828	278	2570	964							Blockade of CS-JQ1-induced BRD4 degradation by CDDO pre-treatment (BRD4 [4]): blocks partially; IC50 (MCF-7): > 10000 nM; IC50 (BT474): 4840 nM; IC50 (CT2A (mice)): 2120 nM; IC50 (U87): 3700 nM
CC1=C(O)C(=O)C=C2C1=CC=C1[C@@]2(C)CC[C@@]2(C)[C@@H]3C[C@](C)(C(=O)NCCCOCCOCCOCCCNC(=O)CC4N=C(c5ccc(Cl)cc5)c5c(sc(C)c5C)-n5c(C)nnc54)CC[C@]3(C)CC[C@]12C (stereo partly drawn) [CS-JQ1, (2R,4aS,6aS,12bR,14aS,14bR)—N-(1-(4-(4-chlorophenyl)-2,3,9-trimethyl-6H-thieno[3,2-f][1,2,4]triazolo[4,3-a][1,4]diazepin-6-yl)-2-oxo-7,10,13-trioxa-3-azahexadecan-16-yl)-10-hydroxy-2,4a,6a,9,12b,14a-hexamethyl-11-oxo-1,2,3,4,4a,5,6,6a,11,12b,13,14,14a,14b-tetradecahydropicene-2-carboxamide]		119	213	263	39 nM	83.1	819	328	63.1	190	90.4	79.7	447	99.3	60.9	298	8.48	103	38.2	266	Emax (BRD4 [5]): 21%; Emax,5h,MCF7 (BRD4 [5]): 21%; DC50 (BRD4 [5]; n=2): 29 ± 14 nM; Emax (BRD4 [6]): 12%; Emax,5h,MDA-MB-231 (BRD4 [6]): 12%; DC50 (BRD4 [6]; n=2): 16 ± 2 nM; Binding to BRD4 (BRD4 [7]): did not impair binding to BRD4; Binding to Keap1 Kelch domain (Keap1 Kelch domain): lost the ability to bind the Keap1 Kelch domain; Affinity for Keap1 BTB domain (Keap1 BTB domain): slightly improved affinity for the BTB domain; Ternary complex formation between Keap1 and BRD4 domains [8]: able to induce ternary complex formation; IC50 (MCF-7; Homo sapiens, MCF7): 409 nM; IC50 (DIPG XIII [2]; listed as Celastrol-JQ1): 46.5 nM; IC50 (CT2A (mice); Mus musculus): 142 nM; IC50 (PN84; listed as Celastrol-JQ1): 125 nM; IC50 (M005 (mice)): 23.6 nM
CC1=C(O)C(=O)C=C2C1=CC=C1[C@@]2(C)CC[C@@]2(C)[C@@H]3C[C@](C)(C(=O)O)CC[C@]3(C)CC[C@]12C [Celastrol, (9β,13α,14β,20α)-3-hydroxy-9,13-dimethyl-2-oxo-24,25,26-Trinoroleana-1(10),3,5,7-tetraen-29-oic acid]		1200	1710	1190	1910 nM and 1800 nM	1360	2960	1160	715	1270	1100	381	1810	1230	511	1600	310	170	276	913	Binding to Keap1 Kelch domain (Keap1 Kelch domain): low micromolar affinity; Affinity for Keap1 BTB domain (Keap1 BTB domain): low micromolar affinity; IC50 (MCF-7; Homo sapiens, MCF7): 3320 nM; IC50 (CT2A (mice); Mus musculus): 605 nM; IC50 (M005 (mice)): 874 nM; pKa [9]: about 4.8
Cc1sc2c(c1C)C(c1ccc(Cl)cc1)=NC(CC(=O)OC(C)(C)C)c1nnc(C)n1-2 (stereo not shown) [JQ-1]	reduced CS-JQ1 degradation efficiency	6490	> 10000	1580	> 10000 nM	> 10000	1520	8120		3680	> 10000	604	> 10000		> 10000	> 10000	900	786	> 10000	6950	IC50 (M005 (mice)): 751 nM; IC50 (DIPG XIII [10]): > 10000 nM; IC50 (MES83 [11]): 6380 nM
NS(=O)(=O)OC[C@@H]1C[C@@H](n2ccc3c(N[C@H]4CCc5ccccc54)ncnc32)C[C@@H]1O [MLN4924]	substantially rescued																				
NS(=O)(=O)OC[C@H]1C[C@@H](Nc2ccnc3cc(-c4cccc(SC(F)(F)F)c4)nn23)[C@H](O)[C@@H]1O [MLN7243]	substantially rescued																				
